We go through 15 compounds from patent US10548317B2, “Pesticidally active pyrazole derivatives” (SYNGENTA PARTICIPATIONS AG, priority 2015, dated 2020).

Some results are limits rather than exact numbers.

For series [1], the system named is Spodoptera littoralis. The series is described as follows: Spodoptera littoralis (Egyptian cotton leaf worm) leaf disc spray test. Conditions: foliar, 72 h, application rate of 200 ppm, cotton leaf discs, L1 larvae, 3 days after infestation, read-out: control (at least one of mortality, anti-feedant effect, growth inhibition). It counts as in vivo. How it is done: Spodoptera littoralis (Egyptian Cotton Leaf Worm)
Cotton leaf discs were placed on agar in 24-well microtiter plates and sprayed with aqueous test solutions prepared from 10'000 ppm DMSO stock solutions. After drying the leaf discs were infested with five L1 larvae. The samples were assessed for mortality, anti-feedant effect, and growth inhibition in comparison to untreated samples 3 days after infestation. Control of Spodoptera littoralis by a test sample is when at least one of mortality, anti-feedant effect, and growth inhibition is higher than the untreated sample.

For series [2], the system named is Thrips tabaci. The series is described as follows: Thrips tabaci (onion thrips) sunflower leaf disc test. It counts as in vivo. The following applies: foliar, 144 h, application rate of 200 ppm, sunflower leaf discs, mixed ages, 6 days after infestation. The protocol:
Thrips tabaci (Onion thrips):
Sunflower leaf discs were placed on agar in 24-well microtiter plates and sprayed with aqueous test solutions prepared from 10'000 ppm DMSO stock solutions. After drying the leaf discs were infested with a thrips population of mixed ages. The samples were assessed for mortality 6 days after infestation.

In series [3] the test system is Diabrotica balteata. The series is described as follows: Diabrotica balteata (corn root worm) maize sprout test. It is filed as in vivo. Conditions: 96 h, application rate of 200 ppm, maize sprouts, L2 larvae, 4 days after infestation, read-out: effect in at least one of the two categories (mortality or growth inhibition). The protocol:
Diabrotica balteata, (Corn Root Worm)
Maize sprouts, placed on an agar layer in 24-well microtiter plates were treated with aqueous test solutions prepared from 10'000 ppm DMSO stock solutions by spraying. After drying, the plates were infested with L2 larvae (6 to 10 per well). The samples were assessed for mortality and growth inhibition in comparison to untreated samples 4 days after infestation. The following compounds gave an effect of at least 80% in at least one of the two categories (mortality or growth inhibition) at an application rate of 200 ppm: 1, 3, 4, 5, 6, 7, 8, 9, 10, 11, 12, 14, 15, 16, 17, 18, 19, 20, 21, 22, 23, 24, 25, 26, 27, 28, 29, 30, 31, 32, 33, 35, 36, 37, 38, 39, 40, 41, 42, 43, 44, 45, 48, 50, 51, 52, 53, 54 and 55.

In series [4] the test system is Euschistus heros. As to the kind of experiment: Euschistus heros (neotropical brown stink bug) soybean leaf test. Conditions: 120 h, application rate of 200 ppm, soybean leaves, N2 nymphs, 5 days after infestation, read-out: effect in at least one of the two categories (mortality or growth inhibition). It counts as in vivo. The protocol:
Euschistus heros (Neotropical Brown Stink Bug)
Soybean leaves on agar in 24-well microtiter plates were sprayed with aqueous test solutions prepared from 10'000 ppm DMSO stock solutions. After drying the leaves were infested with N2 nymphs. The samples were assessed for mortality and growth inhibition in comparison to untreated samples 5 days after infestation. The following compounds gave an effect of at least 80% in at least one of the two categories (mortality or growth inhibition) at an application rate of 200 ppm: 3, 4, 5, 6, 9, 10, 12, 14, 15, 16, 17, 18, 20, 24, 27, 28, 29, 31, 32, 33, 36, 37, 38, 42, 43, 45, 50, 52, 53, 54 and 55.

Series [5] has as its system Plutella xylostella. As to the kind of experiment: Plutella xylostella (diamond back moth) artificial diet test. It counts as in vivo. The following applies: 120 h, application rate of 200 ppm, L2 larvae, 5 days after infestation, read-out: effect in at least one of the two categories (mortality or growth inhibition). How it is done: Plutella xylostella (Diamond Back Moth):
24-well microtiter plates with artificial diet were treated with aqueous test solutions prepared from 10'000 ppm DMSO stock solutions by pipetting. After drying, the plates were infested with L2 larvae (10 to 15 per well). The samples were assessed for mortality and growth inhibition in comparison to untreated samples 5 days after infestation. The following compounds gave an effect of at least 80% in at least one of the two categories (mortality or growth inhibition) at an application rate of 200 ppm: 1, 2, 3, 4, 5, 6, 7, 8, 9, 10, 11, 12, 13, 14, 15, 16, 17, 18, 19, 20, 21, 22, 23, 24, 25, 26, 27, 28, 29, 30, 31, 32, 33, 35, 36, 37, 38, 39, 40, 41, 42, 43, 44, 45, 46, 47, 48, 50, 51, 52, 53, 54 and 55.

The subject of series [6] is Tetranychus urticae. The series is described as follows: Tetranychus urticae (two-spotted spider mite) bean leaf disc test. It is filed as in vivo. Conditions: foliar, 192 h, application rate of 200 ppm, bean leaf discs, mixed population (mobile stages), 8 days after infestation. How it is done:
Tetranychus urticae (Two-Spotted Spider Mite):
Bean leaf discs on agar in 24-well microtiter plates were sprayed with aqueous test solutions prepared from 10'000 ppm DMSO stock solutions. After drying the leaf discs were infested with a mite population of mixed ages. The samples were assessed for mortality on mixed population (mobile stages) 8 days after infestation.

Usually mortality stands for the share of the test organisms that died. The low end stands for a weak lethal effect, the high end for a strong lethal effect. By melting point is commonly meant the temperature, or range, at which the solid turns liquid.

For `Cn1nc(C(F)(F)C(F)(F)F)c(C(F)(F)F)c1-n1cc(-c2cc(C(=O)NC3(C(N)=S)CC3)c(Cl)s2)cn1` [Compound 6, N-(1-carbamothioylcyclopropyl)-2-chloro-5-[1-[2-methyl-5-(1,1,2,2,2-pentafluoroethyl)-4-(trifluoromethyl)pyrazol-3-yl]pyrazol-4-yl]thiophene-3-carboxamide], the control (mortality, anti-feedant effect or growth inhibition) at 200 ppm in series [1] is no less than 80%. For the same compound, the mortality at 200 ppm in series [2] and in series [6] was no less than 80% throughout. Moreover, the percent effect (mortality or growth inhibition) at 200 ppm in series [3], in series [4] and in series [5] was no less than 80% in each case.
As for `CN(C(=O)c1cc(-c2cnn(-c3c(C(F)(F)F)c(C(F)(F)C(F)(F)F)nn3C)c2)sc1Cl)C1(C#N)CC1` [Compound 9], the control (mortality, anti-feedant effect or growth inhibition) at 200 ppm in series [1] is no less than 80%. In addition, the mortality at 200 ppm in series [2] and in series [6] was no less than 80% throughout. Further, the percent effect (mortality or growth inhibition) at 200 ppm in series [3], in series [4] and in series [5] was no less than 80% each time.
Consider `CCN(C(=O)c1cc(-c2cnn(-c3c(C(F)(F)F)c(C(F)(F)C(F)(F)F)nn3C)c2)sc1Cl)C1(C#N)CC1` [Compound 10], for which, in series [1], the control (mortality, anti-feedant effect or growth inhibition) at 200 ppm is no less than 80%. Moreover, the mortality at 200 ppm in series [2] and in series [6] was no less than 80% each time. For the same compound, the percent effect (mortality or growth inhibition) at 200 ppm in series [3], in series [4] and in series [5] was no less than 80% each time.
For `Cn1nc(C(F)(F)C(F)(F)F)c(C(F)(F)F)c1-n1cc(-n2cc(C(=O)NC3CC3)c(C(F)(F)F)n2)cn1` [Compound 12], in series [1], the control (mortality, anti-feedant effect or growth inhibition) at 200 ppm was no less than 80%. For the same compound, the mortality at 200 ppm in series [2] and in series [6] was no less than 80% in each case. Besides, the percent effect (mortality or growth inhibition) at 200 ppm in series [3], in series [4] and in series [5] was no less than 80% throughout.
As for `CC(C)NC(=O)c1cc(-c2cnn(-c3c(C(F)(F)F)c(C(F)(F)C(F)(F)F)nn3C)c2)sc1Cl` [Compound 17], the control (mortality, anti-feedant effect or growth inhibition) at 200 ppm in series [1] was no less than 80%. Also, the mortality at 200 ppm in series [2] and in series [6] was no less than 80% each time. The percent effect (mortality or growth inhibition) at 200 ppm in series [3], in series [4] and in series [5] was no less than 80% throughout.
In the case of `CCNC(=O)c1cc(-c2cnn(-c3c(C(F)(F)F)c(C(F)(F)C(F)(F)F)nn3C)c2)sc1Cl` [Compound 20], the control (mortality, anti-feedant effect or growth inhibition) at 200 ppm in series [1] is no less than 80%. Besides, the mortality at 200 ppm in series [2] and in series [6] was no less than 80% each time. Further, the percent effect (mortality or growth inhibition) at 200 ppm in series [3], in series [4] and in series [5] was no less than 80% in each case.
Turning to `Cn1nc(C(F)(F)C(F)(F)F)c(C(F)(F)F)c1-n1cc(-c2cc(C(=O)NCC3CC3)c(Cl)s2)cn1` [Compound 27], the control (mortality, anti-feedant effect or growth inhibition) at 200 ppm in series [1] was no less than 80%. The mortality at 200 ppm in series [2] and in series [6] was no less than 80% each time. Besides, the percent effect (mortality or growth inhibition) at 200 ppm in series [3], in series [4] and in series [5] was no less than 80% in each case.
As to `C=CCNC(=O)c1cc(-c2cnn(-c3c(C(F)(F)F)c(C(F)(F)C(F)(F)F)nn3C)c2)sc1Cl` [Compound 29], the control (mortality, anti-feedant effect or growth inhibition) at 200 ppm in series [1] is no less than 80%. The mortality at 200 ppm in series [2] and in series [6] was no less than 80% each time. Also, the percent effect (mortality or growth inhibition) at 200 ppm in series [3], in series [4] and in series [5] was no less than 80% throughout.
For the compound `C=C(Cl)CNC(=O)c1cc(-c2cnn(-c3c(C(F)(F)F)c(C(F)(F)C(F)(F)F)nn3C)c2)sc1Cl` [Compound 31], in series [1], the control (mortality, anti-feedant effect or growth inhibition) at 200 ppm is no less than 80%. Moreover, the mortality at 200 ppm in series [2] and in series [6] was no less than 80% throughout. Also, the percent effect (mortality or growth inhibition) at 200 ppm in series [3], in series [4] and in series [5] was no less than 80% throughout.
Regarding `Cn1nc(C(F)(F)C(F)(F)F)c(C(F)(F)F)c1-n1cc(-c2cc(C(=O)N[C@H]3C[C@@H]3C(F)(F)F)c(Cl)s2)cn1` [Compound 33], the control (mortality, anti-feedant effect or growth inhibition) at 200 ppm in series [1] is no less than 80%. For the same compound, the mortality at 200 ppm in series [2] and in series [6] was no less than 80% each time. In addition, the percent effect (mortality or growth inhibition) at 200 ppm in series [3], in series [4] and in series [5] was no less than 80% throughout.
Regarding `Cn1nc(C(F)(F)C(F)(F)F)c(OC(F)F)c1-n1cc(-c2cc(C(=O)NC3CC3)c(Cl)s2)cn1` [Compound 37], in series [1], the control (mortality, anti-feedant effect or growth inhibition) at 200 ppm is no less than 80%. Also, the mortality at 200 ppm in series [2] and in series [6] was no less than 80% each time. The percent effect (mortality or growth inhibition) at 200 ppm in series [3], in series [4] and in series [5] was no less than 80% each time.
As to `Cn1nc(C(F)(F)C(F)(F)F)c(OC(F)F)c1-n1cc(-c2cc(C(=O)NC3(C#N)CC3)c(Cl)s2)cn1` [Compound 38], the control (mortality, anti-feedant effect or growth inhibition) at 200 ppm in series [1] was no less than 80%. Further, the mortality at 200 ppm in series [2] and in series [6] was no less than 80% each time. Also, the percent effect (mortality or growth inhibition) at 200 ppm in series [3], in series [4] and in series [5] was no less than 80% each time.
In the case of `Cc1sc(-c2cnn(-c3c(C(F)(F)F)c(C(F)(F)C(F)(F)F)nn3C)c2)cc1C(=O)NC1(C#N)CC1` [Compound 42], the control (mortality, anti-feedant effect or growth inhibition) at 200 ppm in series [1] was no less than 80%. The mortality at 200 ppm in series [2] and in series [6] was no less than 80% throughout. Besides, the percent effect (mortality or growth inhibition) at 200 ppm in series [3], in series [4] and in series [5] was no less than 80% throughout.
As to `Cc1sc(-c2cnn(-c3c(C(F)(F)F)c(C(F)(F)C(F)(F)F)nn3C)c2)cc1C(=O)NC1CC1` [Compound 43], the control (mortality, anti-feedant effect or growth inhibition) at 200 ppm in series [1] is no less than 80%. For the same compound, the mortality at 200 ppm in series [2] and in series [6] was no less than 80% each time. Moreover, the percent effect (mortality or growth inhibition) at 200 ppm in series [3], in series [4] and in series [5] was no less than 80% each time.
`Cn1nc(C(F)(F)C(F)(F)F)c(C(F)(F)F)c1-n1cc(-n2cnc(C(=O)NC3CC3)c2)cn1` [Compound 49] returned a melting point of 190 to 191 °C.
